The first test deals with OPN production in RPMI8226 cells. Nature of the test: OPN production inhibiting effect in cultured RPMI8226 cells (ELISA of culture supernatant). The test is classed as cell-based, human. To be noted: Homo sapiens, RPMI-8226, 72 h; RPMI8226 myeloma cells; 3 days prophase + 3 days anaphase culture; 0.1-10 μmol/L; OPN in culture supernatant by ELISA; logistic curve; read-out: IC50 (OPN production inhibition). On the procedure:
Compounds 1 to 6 were separately dissolved in dimethylsulfoxide (DMSO) to prepare 20 mmol/L solutions of the respective compounds. Aliquots of those solutions were diluted further to prepare 6, 2, 0.6 and 0.2 mmol/L solutions of the respective compounds. The DMSO solutions of the respective compounds (1 to 6) (concentrations: 0.2 to 20 mmol/L) and DMSO (as a compound non-addition group) were separately diluted 1,000-fold with a culture medium (10% fetal-bovine-serum (FBS)-added RPMI-1640 medium) to prepare 0 (non-addition group), 0.2, 0.6, 2, 6 and 20 μmol/L solutions of the respective compounds (1-6).
3) Study on the OPN Production Inhibiting Effect of the Individual Compounds in RPMI8226 Cells
A 2×10^5 cells/mL cell suspension of RPMI8226 cells was prepared, and was seeded 2 mL by 2 mL per well on a 6-well plates. To the wells, the individual solutions prepared in the procedure 2) (the solutions of Compounds 1 to 6, having concentrations of 0 (non-addition group), 0.2, 0.6, 2, 6, and 20 μmol/L, respectively) were added 2 mL by 2 mL per well, followed by mixing to bring the final concentrations of Compound 1-6 in the individual wells to 0 (non-added group), 0.1, 0.3, 1, 3 and 10 μmol/L. The cells of those conditions were cultured as prophase culture at 37° C. for 3 days in the presence of 5% CO2.
After the above-described culture, the cells in the respective wells were collected, and were counted well by well. Those cells were again suspended separately in aliquots of a 2×10^5 cells/mL suspension, and the cells of the respective conditions were each seeded 0.5 mL by 0.5 mL per well in two wells. To the wells of the respective conditions, individual solutions prepared at the same concentrations as those at the time of the culture in a similar manner as in the prophase culture (individual solutions of Compounds 1 to 6, having concentrations of […], respectively) were added 0.5 mL by 0.5 mL per sell to the individual wells. After mixing, the cells were cultured as anaphase culture at 37° C. for 3 days in the presence of 5% CO2.
Subsequent to the completion of the anaphase culture, culture supernatants were separately collected from the respective wells, and the OPN concentrations in the individual culture supernatants were quantitated with an absorptiometer by ELISA (Human Osteopontin Measurement Kit IBL; IBL Co., Ltd.).
Using the SAS Preclinical Package, Version 5.0, the measurement values were analyzed by the following procedure. Described specifically, the concentrations were logarithmically converted (the compound non-addition group (0 μmol/L) was replaced by 1 pmol/L), and using the measurement values (6 concentrations, 2 measurement values per concentration, 12 measurement values in total), plotting into a logistic curve was conducted. From the curve, concentrations (IC50) which give 50% reactivity were calculated.
Turning to `CSc1ccc(-c2nn(Cc3ccccc3)c(=O)cc2-c2ccc(Cl)cc2)cc1` [Compound 4, 2-benzyl-5-(4-chlorophenyl)-6-[4-(methylthio)phenyl]-2H-pyridazin-3-one], the half-maximal inhibitory concentration (IC50) – broadly, the concentration that inhibits the measured activity by half – stood at 2560 nM.
On the same count and under the same terms, next, `CSc1ccc(-c2nn(Cc3ccccn3)c(=S)cc2-c2ccc(Cl)cc2)cc1` [Compound 1, 5-(4-chlorophenyl)-6-[4-(methylthio)phenyl]-2-(2-pyridylmethyl)-2H-pyridazine-3-thione methanesulfonate]: 2090 nM; `COc1ccc(-c2cc(=O)n(CC=Cc3ccc(Cl)cc3)nc2-c2ccc(OC)cc2)cc1` [Compound 3, 5,6-bis(4-methoxyphenyl)-2-(4-chlorocinnamyl)-2H-pyridazin-3-one]: 2760 nM.
Consider `CSc1ccc(-c2nn(Cc3cccnc3)c(=O)cc2-c2ccc(Cl)cc2)cc1` [Compound 2, 5-(4-chlorophenyl)-6-[4-(methylthio)phenyl]-2-(3-pyridylmethyl)-2H-pyridazin-3-one methanesulfonate], for which the IC50 is 2910 nM.
Still for that read-out and setting: next, `CCn1nc(-c2ccc(OC)cc2)c(-c2ccc(OC)cc2)cc1=O` [Compound 6, 5,6-bis(4-methoxyphenyl)-2-ethyl-2H-pyridazin-3-one]: 1120 nM.

Still in this test, the particulars now being: RPMI8226 myeloma cells; 3 days prophase + 3 days anaphase culture; 0.1-10 μmol/L; OPN in culture supernatant by ELISA; logistic curve; read-out: IC50 (OPN production inhibition).
Take `COc1ccc(-c2nn(Cc3ccc(Cl)cc3)c(=O)cc2-c2ccncc2)cc1` [Compound 5]: the IC50 came to 2420 nM.

Source of the values: US20070021418A1, “Method of inhibiting production of osteopontin” (Kowa Co., LTD., priority 2003, published 2007).
